Source: EP0029617A1, “Use of tertiary heterocyclic amines as synergists in pesticides; derivatives of cycloamines” (priority 1979, dated 1981)
Where two headings read alike, the source gives them in different places.

What was measured:
[1] = system: Drosophila melanogaster; experiment: whole plant or invertebrate; type: in vivo; conditions: for Wirksamkeit in % Substanz +Dimeti-lan: 1 ml 0,05%ige amine solution + 1 ml 0,0001%ige Dimetilan solution; for Wirksamkeit in % Substanz +Dimethoat: 1 ml 0,05%ige amine solution + 1 ml 0,005 %ige Dimethoat solution (Dimethoat : amine 1 : 10); for Faktor der Wirkungssteigerung bei Dime-methoat / Faktor der Wirkungssteigerung bei Dimi-tilan: calculated after subtracting the amine's own effect; for Faktor der Wirkungssteigerung bei Dimi-tilan: amine 0,05 % + Dimetilan 0,0001 %
Source text: Die insektiziden Wirkungen von tertiären heterocyclischen Aminen und die synergistischen Eigenschaften mit dem Phosphorsäureester Dimethoat und dem Carbamat Dimetilan, getestet an Drosophila melanogaster.
Die Versuche wurden in Petrischalen von 10 cm Durchmesser ausgeführt. Es wurden zunächst die gerade noch wirksamen Konzentrationen von Dimethoat und Dimetilan bestimmt. Für Dimethoat wurde 0,005 % und für Dimetilan 0,0001 % als günstige Versuchskonzentration ermittelt. Die Aminkomponente wurde mit 1 ml 0,05%iger Lösung + 1 ml Aceton auf insektizide Wirkung getestet. Zur Bestimmung des Synergismus wurde 1 ml 0,05%ige Aminlösung + 1 ml 0,005.%ige Dimethoatlösung, bzw. + 1 ml 0,0001%ige Dimetilanlösung pro Petrischale eingesetzt. Alle Verdünnungen wurden mit Aceton als Lösungsmittel hergestellt.
In den Petrischalen wurden die Lösungen am Boden gut verteilt und 30 min lang antrocknen lassen. In jede Petrischale wurden 20 mit Kohlendioxid betäubte Drosophila eingezählt. Alle 5 min, insgesamt 12 mal, wurde die Anzahl der toten Drosophila ausgezählt und notiert. Die Zahlen wurden aufsummiert und im Verhältnis zur möglichen Zahl an toten Drosophila in % angegeben, wobei der Tot aller Drosophila innerhalb der ersten 5 min 100 % Wirkung entspricht. Jeder Versuch wurde mit 3 Wiederholungen durchgeführt. In Tabelle 1 sind die Mittelwerte der Ergebnisse zusammengestellt.
Zur Ermittlung des synergistischen Faktors wurden die Einzelwerte pro Zeiteinheit durch die für Dimethoat, bzw. Dimetilan für die jeweilige Zeiteinheit gefundenen Werte dividiert. Die Werte für jede Zeiteinheit wurden summiert und durch die Anzahl der Zeiteinheiten dividiert. Die Versuche wurden bei sonst stets gleichbleibenden Bedingungen bei Temperaturen von 20 - 22°C ausgeführt. Die Kontrollversuche zeigten bei Versuchsabschluß stets 0 % Mortalität. Hat die Substanz selbst eine insektizide Wirkung, so wurden die Wirkungsfaktoren für Dimethoat und Dimetilan nach Abzug des Substanzwertes berechnet und in der Tabelle aufgeführt.
Im Beispiel 1 war das Verhältnis von Insektizid und erfindungsgemäßem Amin 1 : 10 in den Gemischen mit Dimethoat. In der Tabelle 2 sind Verhältnisse von 1 : 1, 1 : 2 und 1 : 0,2 bei Versuchen mit Dimethoat aufgeführt, dabei wurde das Dimethoat immer in einer Konzentation von 0,005 % eingesetzt. Die Tabelle zeigt, daß auch bei diesen Verhältnissen noch eine gute synergistische Wirkung vorhanden ist, und es keineswegs einer großen überdosierung des Amins bedarf.

[2] = system: Kornkäfer (sitophilus granarius L); experiment: whole plant or invertebrate; type: in vivo; conditions: for % Wirkung Substanz +Ripcord / % Wirkung Substanz +Talcord: 180 min; for mortality at 100 µg/mL / mortality at 50 µg/mL / mortality at 1000 µg/mL: Sitophilus granarius; for mortality at 100 µg/mL / mortality at 50 µg/mL / Wirksamkeit in % Substanz +Ripcord / Wirksamkeit in % Substanz +Talcord: 3 h; for mortality at 100 µg/mL: amine 0,1 mg/ml (as for Pyrethroid : Amin 1 : 10); for mortality at 100 µg/mL / mortality at 50 µg/mL: read-out: % Wirkung Substanz allein; for mortality at 50 µg/mL: amine 0,05 mg/ml (as for Pyrethroid : Amin 1 : 5); for mortality at 1000 µg/mL: read-out: Wirksamkeit in % Substanz allein; for Wirksamkeit in % Substanz +Ripcord: amine 1 mg/ml mixed 1 : 1 with Ripcord 0,01 mg/ml; for Wirksamkeit in % Substanz +Talcord: amine 1 mg/ml mixed 1 : 1 with Talcord 0,01 mg/ml
Outline: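 Acetone solutions (2 ml) were dried as films in 15 cm Petri dishes and 25 grain weevils added per dish, with a filter inserted after 1 h. Dead beetles were counted at 3 h at 19–21 °C, and % mortality and the synergistic factor were derived.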

[3] = Acute oral toxicity, single oral application, 14 day LD50; parameters: species or system SPF-Wistar-Ratten; conditions: rat, in vivo, read-out: 14 Tage LD50
Source text: Die erfindungsgemäßen Verbindungen haben nur eine geringe Toxizität. Es wurde die akute, orale Toxizität von Phenyl-N-piperidino-essigsäure-ethylester und 1-N-Undecyl-piperidin bestimmt. Die Tests wurden mit SPF-Wistar-Ratten durchgeführt und die Wirkstoffe einmal oral appliziert.

[4] = Drosophila melanogaster, 1 ml 0,05%ige amine solution + 1 ml Aceton per dish, 20 flies, dead counted every 5 min, 12 times, mean values, read-out: Wirksamkeit in % Substanz allein
[5] = Drosophila melanogaster, amine 0,01 %, read-out: Sub-stanz allein
[6] = Drosophila melanogaster, amine 0,05 %, read-out: Sub-stanz allein
[7] = amine 0,01 % + Dimethoat 0,005 %, Dimethoat : Amin 1 : 2
[8] = amine 0,01 %, Dimethoat : Amin 1 : 2
[9] = amine 0,05 % + Dimethoat 0,005 %, Dimethoat : Amin 1 : 10
[10] = amine 0,05 % + Dimethoat 0,005 %
[11] = amine 0,05 %, Dimethoat : Amin 1 : 10
[12] = Pyrethroid : Amin 1 : 10, amine 0,1 mg/ml
[13] = Drosophila melanogaster, amine 0,005 %, read-out: Sub-stanz allein
[14] = amine 0,005 % + Dimethoat 0,005 %, Dimethoat : Amin 1 : 1
[15] = amine 0,005 %, Dimethoat : Amin 1 : 1
[16] = Pyrethroid : Amin 1 : 5, amine 0,05 mg/ml
[17] = amine 1 mg/ml in Aceton mixed 1 : 1 with Aceton, 2 ml per dish, 25 weevils, dead counted after 3 h
[18] = amine 1 mg/ml + Ripcord 0,01 mg/ml
[19] = amine 1 mg/ml + Talcord 0,01 mg/ml

Structure (SMILES) | Wirksamkeit in % Substanz +Dimeti-lan [1] | Wirksamkeit in % Substanz +Dimethoat [1] | mortality at 0.05 % [1, 4] [%] | mortality at 0.05 % [1, 6] [%] | Substanz + Dime-thoat [1, 9] | Faktor der Wirkungssteigerung bei Dime-methoat [1, 10] | Faktor der Wirkungs-steigerung [1, 11] | % Wirkung Substanz +Ripcord [2, 12] | % Wirkung Substanz +Talcord [2, 12] | mortality at 100 µg/mL [2] [%] | mortality at 0.005 % [1, 13] [%] | Substanz + Dime-thoat [1, 14] | Faktor der Wirkungs-steigerung [1, 15] | mortality at 1000 µg/mL [2, 17] [%] | Wirksamkeit in % Substanz +Ripcord [2] | Wirksamkeit in % Substanz +Talcord [2] | Synergistischer Faktor bei Ripcord [2, 18] | Synergistischer Faktor bei Talcord [2, 19] | other results
CCOC(=O)C(c1ccccc1)N1CCCCC1 (stereo not drawn) [Phenyl-N-piperidino-essigsäure-ethylester] | 2,7% | 22,2% | 0 | 0 | 22,1% | 2,57 | 2,57 | 98,8% | 50,8% | 0 | – | – | – | – | – | – | – | – | mortality at 0.01 % [1, 5]: 0%; Substanz + Dime-thoat [1, 7]: 59,2%; Faktor der Wirkungs-steigerung [1, 8]: 6,88; Synergistischer Faktor bei Ripcord ([2]; Pyrethroid : Amin 1 : 10): 3,14; Synergistischer Faktor bei Talcord ([2]; Pyrethroid : Amin 1 : 10): 5,24; LD50 at 336 h ([3]; männliche Ratten): 9750 mg/kg; LD50 at 336 h ([3]; weibliche Ratten): 8170 mg/kg
c1cc2c(cc1CN1CCCCC1)OCO2 [N-Piperonyl-piperidin] | 52,1% | 65,0% | 51.7 | 28.8 | 60,0% | 1,55 | 3,63 | 74,8% | 24,0% | 0 | 0 | 26,3% | 3,06 | 0 | 90,8% | 64,0% | – | – | % Wirkung Substanz +Ripcord [2, 16]: 84,0%; % Wirkung Substanz +Talcord [2, 16]: 54,8%; mortality at 50 µg/mL [2]: 0%
CCCCCCCCCCN1CCCCC1 [N-1-Decyl-piperidin] | – | – | – | – | – | – | – | 97,2% | 65,2% | 0 | 0 | 45,4% | 5,28 | – | – | – | – | – | Synergistischer Faktor bei Ripcord ([2]; Pyrethroid : Amin 1 : 10): 3,09; Synergistischer Faktor bei Talcord ([2]; Pyrethroid : Amin 1 : 10): 6,72
C(CCCCN1CCOCC1)CCCN1CCOCC1 [1,8-N,N-Dimorpholino-octan] | 10,4% | 23,8% | – | – | – | 2,62 | – | – | – | – | – | – | – | – | 93,2% | 50,8% | 1,56 | – | Wirksamkeit in % Substanz allein ([1]; 1 ml 0,05%ige amine solution + 1 ml Aceton per dish, 20 flies, dead counted every 5 min, 12 times, mean values): 1,3%; Faktor der Wirkungssteigerung bei Dimi-tilan [1]: 3,64; Wirksamkeit in % Substanz allein [2, 17]: 44,0%
CCCCCCCCCCCN1CCCCC1 [N-1-Undecyl-piperidin] | – | – | – | – | – | – | – | 97,2% | 60,0% | 0 | – | – | – | – | – | – | – | – | % Wirkung Substanz +Ripcord [2, 16]: 90,8%; % Wirkung Substanz +Talcord [2, 16]: 53,2%; mortality at 50 µg/mL [2]: 0%; LD50 at 336 h ([3]; männliche Ratten): 593 mg/kg; LD50 at 336 h ([3]; weibliche Ratten): 493 mg/kg
CCCCCCCCCCCCCN1CCCCC1 [N-1-Tridecyl-piperidin] | 2,3% | 54,6% | 0 | 0 | 54,6% | 6,35 | 6,35 | – | – | – | – | – | – | 0 | 96,0% | 17,2% | 3,05 | 1,77 | mortality at 0.01 % [1, 5]: 0%; Substanz + Dime-thoat [1, 7]: 42,9%; Faktor der Wirkungs-steigerung [1, 8]: 4,99
CC(C)=CCCC(C)CCN1CCCCC1 (stereo not drawn) [N-Citronellyl-piperidin] | – | – | – | – | – | – | – | – | – | – | 0 | 32,9% | 3,83 | 1.2 | 78,8% | 54,8% | 2,46 | 5,53 | mortality at 0.001 % ([1]; Drosophila melanogaster, amine 0,001 %, read-out: Sub-stanz allein): 0%; Substanz + Dime-thoat ([1]; amine 0,001 % + Dimethoat 0,005 %, Dimethoat : Amin 1 : 0,2): 30,4%; Faktor der Wirkungs-steigerung ([1]; amine 0,001 %, Dimethoat : Amin 1 : 0,2): 3,53
C(=Cc1ccccc1)CN1CCCC1 [1-Cinnamyl-pyrrolidin] | 55,4% | 5,8% | 0 | – | – | – | – | – | – | – | – | – | – | 0 | 97,2% | 30,8% | 3,08 | 3,17 | Faktor der Wirkungssteigerung bei Dimi-tilan [1]: 22,2
